According to ChEMBL document CHEMBL1146402, “New Oxygenated Sesquiterpenes from the Indonesian Soft Coral Nephthea chabrolii” (J Nat Prod, 1997):
≈ marks a conversion by molar mass, not a printed value.

Legend:
[1] = tested on: Spodoptera littoralis; test: Insecticidal activity in Spodoptera littoralis assessed as inhibition of larval growth after 6 days by chronic feeding experiment; type: functional, organism-based
[2] = tested on: Spodoptera littoralis; test: Insecticidal activity in Spodoptera littoralis assessed as inhibition of larval growth at 530 ppm after 6 days by chronic feeding experiment; type: functional; conditions: 144 h

CC1=C2C[C@H](C(C)(C)O)CC[C@H](C)[C@@H]2CC1=O [HYDROXYCOLORENONE]
EC50 [1]: 8.8 ppm | LC50 ([1]; Spodoptera littoralis, 144 h): 453 mg/L (≈ 1920 µM) | inhibition at 530 ppm [2]: 90%
